Measured values as given in patent US20170065564A1, “BIS-CYCLIC GUANIDINE COMPOUND COMPOSITIONS, METHODS OF USE AND TREATMENT THEREOF” (University of South Florida, priority 2014, published 2017).

What was measured:
Assay type in all cases: cell-based
[1] = system: ESKAPE pathogens; assay: MIC micro broth dilution assay, statements and stacked scores over all ESKAPE pathogens; settings: letters E,S,K,A,P,E = ESKAPE pathogens, — = none
Experimental: (§1) For this study we used a representative panel of multi-drug resistant clinical ESKAPE pathogen isolates (Supplemental Table S6).^42 43 3a, 44 45 Gram-positive organisms were grown in tryptic soy broth media (TSB), whilst Gram-negative organisms were grown in lysogeny Broth (LB), as described by us previously. ^43 MIC and MBC determination assays.
(§2) The minimum inhibitory concentration (MIC) for the combinatorial libraries, deconvolved 2157 library, and individual compounds were determined as follows. Broth cultures of ESKAPE strains were grown overnight before being diluted 1 in 1,000 in fresh media. Sterile 96-well plates were loaded with culture and compounds (in DMF) were added at decreasing concentrations to equal a total volume of 200 μl per well. Care was taken to not add more than 2.0% DMF to any well. Plates were then incubated at 37° C., and MICs determined after 24 hours by visual inspection for a lack of turbidity in wells. All assays were performed in triplicate with identical results obtained. For both the scaffold ranking and positional scanning samples, relative broad-spectrum activity was determined via stacked scores: […]

[2] = system: Staphylococcus aureus; assay: MIC micro broth dilution assay; set-up: key to stacked score activity, 100/MIC, S: stacked score = 100/MIC; settings: S. aureus
Experimental: as §1
as §2, with “Broth” for “The minimum inhibitory concentration (MIC) for the combinatorial libraries, deconvolved 2157 library, and individual compounds were determined as follows. Broth”

[3] = system: Klebsiella pneumoniae; assay: MIC micro broth dilution assay; set-up: key to stacked score activity, 100/MIC, K: stacked score = 100/MIC; settings: K. pneumoniae
Experimental: as §1
as §2, with “Broth” for “The minimum inhibitory concentration (MIC) for the combinatorial libraries, deconvolved 2157 library, and individual compounds were determined as follows. Broth”

[4] = system: Acinetobacter baumannii; assay: MIC micro broth dilution assay; set-up: key to stacked score activity, 100/MIC, A: stacked score = 100/MIC; settings: A. baumannii
Experimental: as §1
as §2, with “Broth” for “The minimum inhibitory concentration (MIC) for the combinatorial libraries, deconvolved 2157 library, and individual compounds were determined as follows. Broth”

[5] = system: Enterococcus faecium; assay: MIC micro broth dilution assay; set-up: key to stacked score activity, 100/MIC, E: stacked score = 100/MIC; settings: E. faecium
Experimental: as §1
as §2, with “Broth” for “The minimum inhibitory concentration (MIC) for the combinatorial libraries, deconvolved 2157 library, and individual compounds were determined as follows. Broth”

[6] = system: Enterobacter cloacae; assay: MIC micro broth dilution assay; set-up: key to stacked score activity, 100/MIC, E: stacked score = 100/MIC; settings: E. cloacae
Experimental: as §1
as §2, with “Broth” for “The minimum inhibitory concentration (MIC) for the combinatorial libraries, deconvolved 2157 library, and individual compounds were determined as follows. Broth”

N=C1NC[C@H](CCCCN2C[C@@H](Cc3cccc4ccccc34)N(CCCCC3CCCCC3)C2=N)N1CCCCC1CCCCC1 [Compound 14]
pathogens against which the compound showed activity at 5 ug/ml [1]: SKAE | pathogens against which the compound showed activity at 10 ug/ml [1]: ESKAE | pathogens against which the compound showed activity at 25 ug/ml [1]: ESKAPE | stacked score activity, 100/MIC, S [2]: 20 | stacked score activity, 100/MIC, K [3]: 20 | stacked score activity, 100/MIC, A [4]: 20 | stacked score activity, 100/MIC, E [5]: 10 | stacked score activity, 100/MIC, E [6]: 20

N=C1NC[C@H](CCCCN2C[C@H](CC3CCCCC3)N(CCc3ccc(-c4ccccc4)cc3)C2=N)N1CCC12CC3CC(CC(C3)C1)C2 [Compound 27]
pathogens against which the compound showed activity at 5 ug/ml [1]: SKP | pathogens against which the compound showed activity at 10 ug/ml [1]: ESKPE | pathogens against which the compound showed activity at 25 ug/ml [1]: ESKAPE | stacked score activity, 100/MIC, S [2]: 20 | stacked score activity, 100/MIC, K [3]: 20 | stacked score activity, 100/MIC, A [4]: 4 | stacked score activity, 100/MIC, E [5]: 10 | stacked score activity, 100/MIC, E [6]: 10

CCCCCCCN1C(=N)N(CCCC[C@H]2CNC(=N)N2CCc2cccc(C(F)(F)F)c2)C[C@H]1Cc1cccc2ccccc12 [Compound 4]
pathogens against which the compound showed activity at 4 ug/ml [1]: ESA | pathogens against which the compound showed activity at 5 ug/ml [1]: ESKAE | pathogens against which the compound showed activity at 10 ug/ml [1]: ESKAE | pathogens against which the compound showed activity at 25 ug/ml [1]: ESKAPE | stacked score activity, 100/MIC, S [2]: 25 | stacked score activity, 100/MIC, K [3]: 20 | stacked score activity, 100/MIC, A [4]: 25 | stacked score activity, 100/MIC, E [5]: 33 | stacked score activity, 100/MIC, E [6]: 20

CCCC[C@H]1CN(CCCC[C@H]2CNC(=N)N2CCCCC2CCCCC2)C(=N)N1CCc1ccc(-c2ccccc2)cc1 [Compound 12]
pathogens against which the compound showed activity at 5 ug/ml [1]: ESKAE | pathogens against which the compound showed activity at 10 ug/ml [1]: ESKAPE | pathogens against which the compound showed activity at 25 ug/ml [1]: ESKAPE | stacked score activity, 100/MIC, S [2]: 20 | stacked score activity, 100/MIC, K [3]: 20 | stacked score activity, 100/MIC, A [4]: 25 | stacked score activity, 100/MIC, E [5]: 20 | stacked score activity, 100/MIC, E [6]: 20

CCCCCCCN1C(=N)N(CCCC[C@H]2CNC(=N)N2CCC23CC4CC(CC(C4)C2)C3)C[C@@H]1CC1CCCCC1 [Compound 25]
pathogens against which the compound showed activity at 4 ug/ml [1]: EAP | pathogens against which the compound showed activity at 5 ug/ml [1]: ESKAPE | pathogens against which the compound showed activity at 10 ug/ml [1]: ESKAPE | pathogens against which the compound showed activity at 25 ug/ml [1]: ESKAPE | stacked score activity, 100/MIC, S [2]: 20 | stacked score activity, 100/MIC, K [3]: 20 | stacked score activity, 100/MIC, A [4]: 25 | stacked score activity, 100/MIC, E [5]: 50 | stacked score activity, 100/MIC, E [6]: 20

N=C1NC[C@H](CCCCN2C[C@H](CC3CCCCC3)N(CCc3ccc(-c4ccccc4)cc3)C2=N)N1CCCCC1CCCCC1 [Compound 18]
pathogens against which the compound showed activity at 5 ug/ml [1]: ESKAPE | pathogens against which the compound showed activity at 10 ug/ml [1]: ESKAPE | pathogens against which the compound showed activity at 25 ug/ml [1]: ESKAPE | stacked score activity, 100/MIC, S [2]: 20 | stacked score activity, 100/MIC, K [3]: 20 | stacked score activity, 100/MIC, A [4]: 20 | stacked score activity, 100/MIC, E [5]: 20 | stacked score activity, 100/MIC, E [6]: 20

N=C1NC[C@H](CCCCN2C[C@H](CC3CCCCC3)N(CCCCC3CCCCC3)C2=N)N1CCCCC1CCCCC1 [Compound 17]
pathogens against which the compound showed activity at 5 ug/ml [1]: ESKAPE | pathogens against which the compound showed activity at 10 ug/ml [1]: ESKAPE | pathogens against which the compound showed activity at 25 ug/ml [1]: ESKAPE | stacked score activity, 100/MIC, S [2]: 20 | stacked score activity, 100/MIC, K [3]: 20 | stacked score activity, 100/MIC, A [4]: 20 | stacked score activity, 100/MIC, E [5]: 20 | stacked score activity, 100/MIC, E [6]: 20
